#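 Where inhibition never reached the appropriate level, the endpoint shown equals the highest concentration tested. Otherwise, values were interpolated linearly from a five-concentration, 48-hour dose response in 96-well plates. Here, GI50 denotes the concentration required for 50% inhibition of growth. TGI: total growth inhibition.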
# Legend:
# Assay in all cases: NCI tumour cell line growth inhibition, 48 h
# PC-3 prostate = tested on: PC-3 prostate
# IGROV1 ovarian = tested on: IGROV1 ovarian
# T-47D breast = tested on: T-47D breast
# SK-OV-3 ovarian = tested on: SK-OV-3 ovarian
# MCF7 breast = tested on: MCF7 breast
# A549 NSCLC = tested on: A549 NSCLC
# MOLT-4 leukemia = tested on: MOLT-4 leukemia
# SK-MEL-28 melanoma = tested on: SK-MEL-28 melanoma
# SNB-19 CNS = tested on: SNB-19 CNS
# TK-10 renal = tested on: TK-10 renal
# OVCAR-4 ovarian = tested on: OVCAR-4 ovarian
# HOP-92 NSCLC = tested on: HOP-92 NSCLC
# NCI/ADR-RES ovarian = tested on: NCI/ADR-RES ovarian
# SK-MEL-5 melanoma = tested on: SK-MEL-5 melanoma
# RPMI-8226 leukemia = tested on: RPMI-8226 leukemia
# RXF 393 renal = tested on: RXF 393 renal
# DU-145 prostate = tested on: DU-145 prostate
# A498 renal = tested on: A498 renal
# M14 melanoma = tested on: M14 melanoma
# LOX IMVI melanoma = tested on: LOX IMVI melanoma
# BT-549 breast = tested on: BT-549 breast
# SF-295 CNS = tested on: SF-295 CNS
# MDA-MB-231 breast = tested on: MDA-MB-231 breast
# EKVX NSCLC = tested on: EKVX NSCLC
# ACHN renal = tested on: ACHN renal
# SR leukemia = tested on: SR leukemia
# NCI-H522 lung = tested on: NCI-H522 lung
# NCI-H460 lung = tested on: NCI-H460 lung
# KM12 colon = tested on: KM12 colon
# SNB-75 CNS = tested on: SNB-75 CNS
# OVCAR-5 ovarian = tested on: OVCAR-5 ovarian
# SF-268 CNS = tested on: SF-268 CNS
# UACC-257 melanoma = tested on: UACC-257 melanoma
# CCRF-CEM leukemia = tested on: CCRF-CEM leukemia
# HL-60(TB) leukemia = tested on: HL-60(TB) leukemia
# MALME-3M melanoma = tested on: MALME-3M melanoma
# HT29 colon = tested on: HT29 colon
# SK-MEL-2 melanoma = tested on: SK-MEL-2 melanoma
# NCI-H226 lung = tested on: NCI-H226 lung
# COLO 205 colon = tested on: COLO 205 colon
# NCI-H23 lung = tested on: NCI-H23 lung
# SW-620 colon = tested on: SW-620 colon
# HOP-62 NSCLC = tested on: HOP-62 NSCLC
# 786-0 renal = tested on: 786-0 renal
# HCC-2998 colon = tested on: HCC-2998 colon
# SF-539 CNS = tested on: SF-539 CNS
# UACC-62 melanoma = tested on: UACC-62 melanoma
# SN12C renal = tested on: SN12C renal
# HCT-116 colon = tested on: HCT-116 colon
# HS 578T breast = tested on: HS 578T breast
# CAKI-1 renal = tested on: CAKI-1 renal
# UO-31 renal = tested on: UO-31 renal
# HCT-15 colon = tested on: HCT-15 colon
# K-562 leukemia = tested on: K-562 leukemia
# OVCAR-8 ovarian = tested on: OVCAR-8 ovarian
# U251 CNS = tested on: U251 CNS
# MDA-MB-435 = tested on: MDA-MB-435
smiles,measurement,setting,value
CS(=O)(=O)Nc1cc(-c2ccc3ncc(C#N)c(NCc4ccccc4F)c3c2)cnc1Cl,GI50,PC-3 prostate,231 nM
same,TGI,PC-3 prostate,10000 nM
same,GI50,IGROV1 ovarian,108 nM
same,TGI,IGROV1 ovarian,876 nM
same,GI50,T-47D breast,108 nM
same,TGI,T-47D breast,5840 nM
same,GI50,SK-OV-3 ovarian,232 nM
same,TGI,SK-OV-3 ovarian,1400 nM
same,GI50,MCF7 breast,106 nM
same,TGI,MCF7 breast,11500 nM
same,GI50,A549 NSCLC,442 nM
same,TGI,A549 NSCLC,4000 nM
same,GI50,MOLT-4 leukemia,190 nM
same,TGI,MOLT-4 leukemia,2540 nM
same,GI50,SK-MEL-28 melanoma,176 nM
same,TGI,SK-MEL-28 melanoma,4770 nM
same,GI50,SNB-19 CNS,293 nM
same,TGI,SNB-19 CNS,11500 nM
same,GI50,TK-10 renal,100 nM
same,TGI,TK-10 renal,976 nM
same,GI50,OVCAR-4 ovarian,262 nM
same,TGI,OVCAR-4 ovarian,6050 nM
same,GI50,HOP-92 NSCLC,23.8 nM
same,TGI,HOP-92 NSCLC,286 nM
same,GI50,NCI/ADR-RES ovarian,1450 nM
same,TGI,NCI/ADR-RES ovarian,29500 nM
same,GI50,SK-MEL-5 melanoma,163 nM
same,TGI,SK-MEL-5 melanoma,336 nM
same,GI50,RPMI-8226 leukemia,189 nM
same,TGI,RPMI-8226 leukemia,1290 nM
same,GI50,RXF 393 renal,93.4 nM
same,TGI,RXF 393 renal,925 nM
same,GI50,DU-145 prostate,302 nM
same,TGI,DU-145 prostate,12100 nM
same,GI50,A498 renal,89.6 nM
same,TGI,A498 renal,461 nM
same,GI50,M14 melanoma,243 nM
same,TGI,M14 melanoma,7010 nM
same,GI50,LOX IMVI melanoma,191 nM
same,TGI,LOX IMVI melanoma,1010 nM
same,GI50,BT-549 breast,60.9 nM
same,TGI,BT-549 breast,623 nM
same,GI50,SF-295 CNS,197 nM
same,TGI,SF-295 CNS,1920 nM
same,GI50,MDA-MB-231 breast,343 nM
same,TGI,MDA-MB-231 breast,3800 nM
same,GI50,EKVX NSCLC,319 nM
same,TGI,EKVX NSCLC,5480 nM
same,GI50,ACHN renal,436 nM
same,TGI,ACHN renal,> 52500 nM
same,GI50,SR leukemia,123 nM
same,TGI,SR leukemia,3200 nM
same,GI50,NCI-H522 lung,335 nM
same,TGI,NCI-H522 lung,8140 nM
same,GI50,NCI-H460 lung,374 nM
same,TGI,NCI-H460 lung,11500 nM
same,GI50,KM12 colon,280 nM
same,TGI,KM12 colon,3860 nM
same,GI50,SNB-75 CNS,26.7 nM
same,TGI,SNB-75 CNS,370 nM
same,GI50,OVCAR-5 ovarian,386 nM
same,TGI,OVCAR-5 ovarian,9740 nM
same,GI50,SF-268 CNS,163 nM
same,TGI,SF-268 CNS,3670 nM
same,GI50,UACC-257 melanoma,244 nM
same,TGI,UACC-257 melanoma,4940 nM
same,GI50,CCRF-CEM leukemia,153 nM
same,TGI,CCRF-CEM leukemia,45800 nM
same,GI50,HL-60(TB) leukemia,253 nM
same,TGI,HL-60(TB) leukemia,6390 nM
same,GI50,MALME-3M melanoma,71.7 nM
same,TGI,MALME-3M melanoma,475 nM
same,GI50,HT29 colon,324 nM
same,TGI,HT29 colon,5490 nM
same,GI50,SK-MEL-2 melanoma,91.9 nM
same,TGI,SK-MEL-2 melanoma,320 nM
same,GI50,NCI-H226 lung,358 nM
same,TGI,NCI-H226 lung,18200 nM
same,GI50,COLO 205 colon,271 nM
same,TGI,COLO 205 colon,1200 nM
same,GI50,NCI-H23 lung,271 nM
same,TGI,NCI-H23 lung,12300 nM
same,GI50,SW-620 colon,317 nM
same,TGI,SW-620 colon,10800 nM
same,GI50,HOP-62 NSCLC,220 nM
same,TGI,HOP-62 NSCLC,4710 nM
same,GI50,786-0 renal,308 nM
same,TGI,786-0 renal,9520 nM
same,GI50,HCC-2998 colon,339 nM
same,TGI,HCC-2998 colon,8320 nM
same,GI50,SF-539 CNS,190 nM
same,TGI,SF-539 CNS,1840 nM
same,GI50,UACC-62 melanoma,118 nM
same,TGI,UACC-62 melanoma,1270 nM
same,GI50,SN12C renal,235 nM
same,TGI,SN12C renal,> 64000 nM
same,GI50,HCT-116 colon,248 nM
same,TGI,HCT-116 colon,1500 nM
same,GI50,HS 578T breast,49.8 nM
same,TGI,HS 578T breast,445 nM
same,GI50,CAKI-1 renal,131 nM
same,TGI,CAKI-1 renal,1420 nM
same,GI50,UO-31 renal,154 nM
same,GI50,HCT-15 colon,264 nM
same,TGI,HCT-15 colon,11700 nM
same,GI50,K-562 leukemia,260 nM
same,TGI,K-562 leukemia,> 100000 nM
same,GI50,OVCAR-8 ovarian,328 nM
same,TGI,OVCAR-8 ovarian,12200 nM
same,GI50,U251 CNS,155 nM
same,TGI,U251 CNS,4270 nM
same,GI50,MDA-MB-435,251 nM
same,TGI,MDA-MB-435,10600 nM
